We go through three molecules from US9206199B2, “Inhibitors of the renal outer medullary potassium channel” (Merck Sharp & Dohme Corp., priority 2011, dated 2015).

The target in one experiment is Kir1.1 (ROMK1) (Homo sapiens (Human), UniProt P48048). Nature of the experiment: Electrophysiology Assay (IonWorks Quattro whole cell voltage clamp).
A further experiment deals with hROMK (hKir1.1) (Homo sapiens (Human), UniProt P48048). Nature of the experiment: Thallium Flux Assay. The experiment is classed as cell-based. The procedure:
At >80% confluency, aspirate the media from the flask and rinse with 10 mL Calcium/Magnesium-free PBS. […] To dislodge the cell, gently bang the side of the flask with your hand. Triturate the cells completely and then transfer the cells to 25 mL complete media. Centrifuge at 1,500 rpm for 6 min followed by resuspension in complete growth media and determine cell concentration. […] Under ideal growth conditions and appropriate tissue culture practices, this cell line is stable for 40-45 passages. FluxOR Kit Components (Invitrogen F10017) • FluxOR™ Reagent (Component A) • FluxOR™ Assay Buffer (Component B)—10× Concentrate • PowerLoad™ Concentrate (Component C)—100× Concentrate • Probenecid (Component D)—Lyophilized sample is kept at −20° C. Water soluble, 100× after solubilization in 1 mL water. […] Store at 4° C. • Thallium sulfate (Tl2SO4) Concentrate (Component G)—50 mM in water. […]
The fluorescence intensity of wells containing 3 μM of a standard control ROMK inhibitor of the present invention is used to define the ROMK-sensitive component of thallium flux. Fluorescence in the presence of test compounds is normalized to control values to provide % fluorescence change.

Read-outs that look alike come from different tables or passages of the source.

hROMK (hKir1.1), sequence (P48048 whole entry): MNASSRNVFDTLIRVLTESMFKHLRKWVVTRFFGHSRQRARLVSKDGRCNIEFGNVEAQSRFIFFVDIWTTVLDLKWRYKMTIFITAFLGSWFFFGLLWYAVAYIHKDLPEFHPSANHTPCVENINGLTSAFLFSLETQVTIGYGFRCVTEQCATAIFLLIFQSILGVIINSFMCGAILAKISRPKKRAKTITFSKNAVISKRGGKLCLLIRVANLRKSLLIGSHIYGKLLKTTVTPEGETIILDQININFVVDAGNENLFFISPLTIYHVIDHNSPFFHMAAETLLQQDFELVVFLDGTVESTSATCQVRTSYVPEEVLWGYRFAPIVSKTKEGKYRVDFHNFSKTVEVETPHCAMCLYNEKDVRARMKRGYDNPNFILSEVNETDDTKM
Kir1.1 (ROMK1), sequence (P48048 whole entry): as above
Protocol for Kir1.1 (ROMK1): Chinese hamster ovary cells stably expressing Kir1.1 channels were maintained in T-75 flasks in cell culture media in a humidified 10% CO2 incubator at 37° C. Prior to an experiment, Kir1.1 expression was induced by overnight incubation with 1 mM sodium butyrate. […] After centrifugation, the cell pellet was resuspended in approximately 4.0 mL of bath solution and placed in the IonWorks instrument. The intracellular solution consisted of (in mM): 80 K gluconate, 40 KCl, 20 KF, 3.2 MgCl2, 3 EGTA, 5 Hepes, pH 7.4. Electrical access to the cytoplasm was achieved by perforation in 0.13 mg/mL amphotericin B for 4 min. […] Voltage protocols and current recordings were performed using the IonWorks HT software/hardware system. Currents were sampled at 1 kHz. No correction for liquid junction potentials was used. The test pulse, consisting of a 100 ms step to 0 mV from a holding potential of −70 mV, followed by a 100 ms voltage ramp from −70 mV to +70 mV, was applied before and after a 6 min compound incubation period. Test compounds were prepared by diluting DMSO stock solutions into the bath solution at 3× the final concentration and placed in the instrument in 96-well polypropylene plates. Current amplitudes were measured using the IonWorks software.

For orientation: IC50 means the concentration needed to halve the response being measured. `O=C1OCCc2cc([C@@H]3CN4CCN(C(=O)Cc5ccc(-n6cnnn6)nc5)C[C@H]4CO3)ccc21` [Example 1] yielded a concentration for half-maximal inhibition (IC50) against Kir1.1 (ROMK1) of 60 nM. `Cc1nc(-n2cnnn2)ccc1CC(=O)N1CCN2C[C@H](c3ccc(F)c(C#N)c3F)OC[C@@H]2C1` [Example 89, 2,6-difluoro-3-[(3S,9aS)-8-{[2-methyl-6-(1H-tetrazol-1-yl)pyridin-3-yl]acetyl}octahydropyrazino[2,1-c][1,4]oxazin-3-yl]benzonitrile] gave a half-inhibitory concentration (IC50) against hROMK (hKir1.1) of 70 nM. As to `N#Cc1cc([C@@H]2CN3CCN(C(=O)Cc4cnc(-n5cnnn5)nc4)C[C@H]3CO2)ccc1F` [Example 142, 2-fluoro-5-[(3R,9aS)-8-{[2-(1H-tetrazol-1-yl)pyrimidin-5-yl]acetyl}octahydropyrazino[2,1-c][1,4]oxazin-3-yl]benzonitrile], on hROMK (hKir1.1) (HEK293 cells stably expressing hROMK (hKir1.1), FLIPR-Tetra, read-out: Thallium Flux IC50), the IC50 turned out to be 100 nM.
